Drawing on patent US20140011799A1 (Bristol-Myers Squibb Company, priority 2012, published 2014), this text covers IC50 for 25 molecules.

A value given as a limit tells only on which side of the number the result lay.

The experiment addresses T1, Endothelial lipase (EL) (Homo sapiens, UniProt Q9Y5X9).
T1 construct: HT-1080 cells that were transformed using RAGE technology (Athersys) to overexpress endogenous EL; endogenous in cells; conditioned medium used
T1 sequence (Q9Y5X9 21-500): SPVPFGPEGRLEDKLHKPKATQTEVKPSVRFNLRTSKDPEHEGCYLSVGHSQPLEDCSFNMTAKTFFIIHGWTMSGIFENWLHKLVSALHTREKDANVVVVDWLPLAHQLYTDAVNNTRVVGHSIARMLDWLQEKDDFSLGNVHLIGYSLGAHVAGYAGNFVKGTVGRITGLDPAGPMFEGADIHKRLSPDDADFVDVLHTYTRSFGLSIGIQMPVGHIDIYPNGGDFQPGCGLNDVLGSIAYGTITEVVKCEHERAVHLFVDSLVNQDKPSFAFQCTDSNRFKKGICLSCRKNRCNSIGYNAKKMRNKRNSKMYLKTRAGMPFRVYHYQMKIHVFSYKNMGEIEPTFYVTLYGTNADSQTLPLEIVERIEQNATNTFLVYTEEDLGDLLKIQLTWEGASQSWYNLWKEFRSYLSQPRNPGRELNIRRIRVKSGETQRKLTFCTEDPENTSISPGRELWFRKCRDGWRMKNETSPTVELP
The experiment can be described thus: Endothelial lipase (EL) enzymatic assay, fluorescent substrate A10070 in DMPG vesicles. The settings on record: EL from conditioned media of HT-1080 cells; compound preincubated 30 min at 37° C; read-out: EL IC50. It counts as biochemical. The method, boiled down: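 Compounds were preincubated with enzyme for 30 min at 37° C before FRET-substrate vesicles (A10070 in DMPG, 0.11 mole fraction) were added. Reaction rates were obtained from the 300–900 sec slope of fluorescence at 490/530 nm.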
With `NS(=O)(=O)NCc1nnc(C(c2nc3ccc(-c4ccccc4)cc3s2)S(=O)(=O)Cc2cc(Cl)cc(Cl)c2)o1` (stereo not shown) [Example 59, N-((5-(((3,5-dichlorobenzyl)sulfonyl)(6-phenyl-1,3-benzothiazol-2-yl)methyl)-1,3,4-oxadiazol-2-yl)methyl)sulfamide], the IC50 – broadly, the concentration that inhibits the measured activity by half – was less than 10 nM.

As to `Cc1nn(C)cc1-c1ccc2nc(C(c3nnc(CC4SC(=O)NC4=O)o3)S(C)(=O)=O)sc2c1` (stereo not shown) [Example 20, 5-((5-((6-(1,3-dimethyl-1H-pyrazol-4-yl)benzo[d]thiazol-2-yl)(methylsulfonyl)methyl)-1,3,4-oxadiazol-2-yl)methyl) thiazolidine-2,4-dione], the IC50 was less than 10 nM.

With `CCNC(=O)NCc1nnc(C(c2nc3ccc(-c4ccccc4)cc3s2)S(C)(=O)=O)o1` (stereo not shown) [Example 87, 1-Ethyl-3((5-((methylsulfonyl)(6-phenylbenzo[d]thiazol-2-yl)methyl)-1,3,4-oxadiazol-2-yl)methyl)urea], the 50% inhibitory concentration (IC50) was 46 nM.

With `CC1(Cc2nnc(C(c3nc4ccc(-c5ccc(F)nc5)cc4s3)S(=O)(=O)Cc3ccccc3)o2)NC(=O)NC1=O` (single isomer, unassigned; isomer b) [Example 7, 5-((5-((benzylsulfonyl)(6-(6-fluoropyridin-3-yl)benzo[d]thiazol-2-yl)methyl)-1,3,4-oxadiazol-2-yl)methyl)-5-methylimidazolidine-2,4-dione (Isomer B)], the concentration for half-maximal inhibition (IC50) came to 188 nM.

`O=C(NCCS(=O)(=O)C(c1nnc(CC2SC(=O)NC2=O)o1)c1nc2c(F)cc(-c3ccccc3)cc2s1)OCc1ccccc1` (stereo not shown) [Example 92, benzyl (2-(((5-((2,4-dioxothiazolidin-5-yl)methyl)-1,3,4-oxadiazol-2-yl)(4-fluoro-6-phenyl-benzo[d]thiazol-2-yl)methyl)sulfonyl)ethyl) carbamate]: the IC50 was less than 10 nM.

For `NS(=O)(=O)NCc1nnc(C(c2nc3ccc(-c4ccccc4)cc3s2)S(=O)(=O)CCCc2ccccc2)o1` (stereo not shown) [Example 54, N-((5-((6-phenyl-1,3-benzothiazol-2-yl) ((3-phenylpropyl)sulfonyl)methyl)-1,3,4-oxadiazol-2-yl)methyl) sulfamide], the half-maximal inhibitory concentration (IC50) is approximately 10 nM.

Consider `NS(=O)(=O)NCc1nnc(C(c2nc3ccc(-c4ccccc4)cc3s2)S(=O)(=O)Cc2ccc(Cl)c(Cl)c2)o1` (stereo not shown) [Example 60, N-((5-(((3,4-chlorobenzyl)sulfonyl)(6-phenyl-1,3-benzothiazol-2-yl)methyl)-1,3,4-oxadiazol-2-yl)methyl)sulfamide], for which the half-maximal inhibitory concentration (IC50) is less than 10 nM.

Take `CC(C)(C)OC(=O)N(Cc1nnc(C(c2nc3ccc(-c4ccccc4)cc3s2)S(C)(=O)=O)o1)S(C)(=O)=O` (stereo not shown) [Example 84, tert-Butyl methylsulfonyl((5-((methylsulfonyl)(6-phenylbenzo[d]thiazol-2-yl)methyl)-1,3,4-oxadiazol-2-yl)methyl)carbamate]: the IC50 is less than 10 nM.

Take `O=S(=O)(CCC(F)(F)F)NS(=O)(=O)Cc1nnc(C(c2nc3ccc(-c4ccccc4)cc3s2)S(=O)(=O)CCC(F)(F)F)o1` (stereo not shown) [Example 36, 3,3,3-trifluoro-N-(((5-((6-phenylbenzo[d]thiazol-2-yl)((3,3,3-trifluoropropyl)sulfonyl)methyl)-1,3,4-oxadiazol-2-yl)methyl)sulfonyl)propane-1-sulfonamide]: the IC50 was less than 10 nM.

With `CS(=O)(=O)C(c1nnc(CNS(N)(=O)=O)o1)c1nc2ccc(-c3ccc(F)nc3)cc2s1` (stereo not shown) [Example 79, N-((5-((6-(6-fluoro-3-pyridinyl)-1,3-benzothiazol-2-yl)(methylsulfonyl)methyl)-1,3,4-oxadiazol-2-yl)methyl)sulfamide], the IC50 was less than 10 nM.

As for `CC(C)(C)CN1CC(c2nnc(C(c3nc4ccc(-c5ccccc5)cc4s3)S(=O)(=O)Cc3ccccc3)o2)C1` (stereo not shown) [Example 82, 2-((Benzylsulfonyl)(6-phenylbenzo[d]thiazol-2-yl)methyl)-5-(1-neopentylazetidin-3-yl)-1,3,4-oxadiazole], the IC50 amounted to 26 nM.

With `NS(=O)(=O)Cc1nnc(C(c2nc3ccc(-c4ccccc4)cc3s2)S(=O)(=O)Cc2ccccc2)o1` (stereo not shown) [Example 37, (5-((benzylsulfonyl)(6-phenylbenzo[d]thiazol-2-yl)methyl)-1,3,4-oxadiazol-2-yl)methanesulfonamide], the IC50 was less than 10 nM.

Turning to `O=S(=O)(O)Cc1nnc(C(c2nc3ccc(-c4ccc(OCc5ccccc5)cc4)cc3s2)S(=O)(=O)CCC(F)(F)F)o1` (stereo not shown) [Example 11, (5-((6-(4-(benzyloxy)phenyl)benzo[d]thiazol-2-yl)((3,3,3-trifluoropropyl)sulfonyl)methyl)-1,3,4-oxadiazol-2-yl)methanesulfonic acid], the IC50 was more than 10 nM.

Turning to `NS(=O)(=O)NCc1nnc(C(c2nc3ccc(-c4ccc(F)nc4)cc3s2)S(=O)(=O)Cc2ccc(C(F)(F)F)nc2)o1` (stereo not shown) [Example 76, N-({5-[6-(6-fluoro-3-pyridinyl)-1,3-benzothiazol-2-yl({[6-(trifluoromethyl)pyridin-3-yl]methyl}sulfonyl)methyl]-1,3,4-oxadiazol-2-yl}methyl) sulfuric diamide], the IC50 came to 11 nM.

In the case of `NS(=O)(=O)NCc1nnc(C(c2nc3ccc(-c4ccccc4)cc3s2)S(=O)(=O)CCCC(F)(F)F)o1` (stereo not shown) [Example 63, N-[(5-{(6-phenyl-1,3-benzothiazol-2-yl) [(4,4,4-trifluorobutyl)sulfonyl]methyl}-1,3,4-oxadiazol-2-yl)methyl] sulfuric diamide], the IC50 is less than 10 nM.

Turning to `O=C1NC(=O)C(Cc2nnc(C(c3nc4cc(F)c(-c5ccccc5)cc4s3)S(=O)(=O)Cc3ccccc3)o2)S1` (stereo not shown) [Example 91, 5-((5-((benzylsulfonyl) (5-fluoro-6-phenyl-benzo[d]thiazol-2-yl)methyl)-1,3,4-oxadiazol-2-yl)methyl) thiazolidine-2,4-dione], the 50% inhibitory concentration (IC50) was less than 10 nM.

For the molecule `O=C1NC(=O)C(Cc2nnc(C(c3nc4c(F)cc(-c5ccccc5)cc4s3)S(=O)(=O)Cc3ccccc3)o2)S1` (stereo not shown) [Example 93, 5-((5-((benzylsulfonyl) (4-fluoro-6-phenyl-benzo[d]thiazol-2-yl)methyl)-1,3,4-oxadiazol-2-yl)methyl)thiazolidine-2,4-dione], the IC50 was less than 10 nM.

Take `CC(C)CS(=O)(=O)C(c1nnc(CNS(N)(=O)=O)o1)c1nc2ccc(-c3ccccc3)cc2s1` (stereo not shown) [Example 68, N-[(5-{6-phenyl-1,3-benzothiazol-2-yl[(2-methylpropyl)sulfonyl]methyl}-1,3,4-oxadiazol-2-yl)methyl]sulfuric diamide]: the half-maximal inhibitory concentration (IC50) is less than 10 nM.

For the molecule `CS(=O)(=O)C(c1nnc(CNS(N)(=O)=O)o1)c1nc2ccc(-c3ccc(C(=O)NCC(F)(F)F)cc3)cc2s1` (stereo not shown) [Example 78, 4-(2-((methylsulfonyl) (5-((sulfamoylamino)methyl)-1,3,4-oxadiazol-2-yl)methyl)benzo[d]thiazol-6-yl)-N-(2,2,2-trifluoroethyl) benzamide], the IC50 is less than 10 nM.

Turning to `CC(c1nnc(CNS(N)(=O)=O)o1)c1nc2ccc(-c3ccc(F)nc3)cc2s1` (stereo not shown) [Reference 3, N-((5-(1-(6-(6-Fluoro-3-pyridinyl)-1,3-benzothiazol-2-yl)ethyl)-1,3,4-oxadiazol-2-yl)methyl)sulfamide, reference compound], the 50% inhibitory concentration (IC50) is 6520 nM.

As for `CC1(Cc2nnc(C(c3nc4ccc(-c5ccc(F)nc5)cc4s3)S(C)(=O)=O)o2)NC(=O)NC1=O` (single isomer, unassigned; isomer a) [Example 21, 5-((5-((6-(6-fluoropyridin-3-yl)benzo[d]thiazol-2-yl)(methylsulfonyl)methyl)-1,3,4-oxadiazol-2-yl)methyl)-5-methylimidazolidine-2,4-dione (Isomer A)], the IC50 turned out to be 281 nM.

For the molecule `CS(=O)(=O)C(c1nnc(CC2NC(=O)NC2=O)o1)c1nc2ccc(-c3ccc(C(=O)N4CCOCC4)cc3)cc2s1` (stereo not shown) [Example 16, 5-((5-((methylsulfonyl)(6-(4-(morpholine-4-carbonyl)phenyl)benzo[d]thiazol-2-yl)methyl)-1,3,4-oxadiazol-2-yl)methyl)imidazolidine-2,4-dione], the IC50 stood at 46 nM.

As to `NS(=O)(=O)NCc1nnc(C(c2nc3ccc(-c4ccccc4)cc3s2)S(=O)(=O)C2CC2)o1` (stereo not shown) [Example 74, N-({5-[(cyclopropylsulfonyl) (6-phenyl-1,3-benzothiazol-2-yl)methyl]-1,3,4-oxadiazol-2-yl}methyl) sulfuric diamide], the IC50 was less than 10 nM.

For the molecule `CC(c1nnc(CNS(N)(=O)=O)o1)(c1nc2ccc(-c3ccccc3)cc2s1)S(C)(=O)=O` (single isomer, unassigned) [Reference 1, Isomer A, N-((5-(1-(Methylsulfonyl)-1-(6-phenyl-1,3-benzothiazol-2-yl)ethyl)-1,3,4-oxadiazol-2-yl)methyl)sulfamide, reference compound], the IC50 was 3750 nM.

In the case of `NS(=O)(=O)NCc1nnc(C(c2nc3ccc(-c4ccc(Cl)cc4)cc3s2)S(=O)(=O)Cc2ccccc2)o1` (stereo not shown) [Example 126, N-((5-((benzylsulfonyl)(6-(4-chlorophenyl)-1,3-benzothiazol-2-yl)methyl)-1,3,4-oxadiazol-2-yl)methyl) sulfamide], the 50% inhibitory concentration (IC50) was less than 10 nM.
